In patent US9999619B2, “Piperidin-4-yl azetidine derivatives as JAK1 inhibitors” (Incyte Corporation, priority 2010, dated 2018):
pIC50: −log10 of the molar value.

Columns and labels:
Format in all cases: biochemical
Jak2 (a.a. 828-1132) = Jak2 (a.a. 828-1132) (Homo sapiens (Human), UniProt O60674); assay: In vitro JAK kinase assay (HTRF, phosphorylation of a biotinylated peptide), JAK2; details: measured at 1 mM ATP
Summary of the method: (§1)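 N-terminal His-tagged catalytic domains, baculovirus-expressed in insect cells, phosphorylated a biotinylated peptide for 1 hr at room temperature. EDTA stop was followed by SA-APC and Eu-Py20 antibody for 40 minutes, with phosphopeptide read by HTRF.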

[1] = molecular target: human JAK1 (a.a. 837-1142) (Homo sapiens, UniProt P23458); assay: In vitro JAK kinase assay (HTRF, phosphorylation of a biotinylated peptide), JAK1; details: measured at 1 mM ATP
Summary of the method: as §1

[2] = molecular target: human JAK1 (a.a. 837-1142); assay: as above; details: ratio of JAK2 IC50 to JAK1 IC50, measured at 1 mM ATP
Summary of the method: as §1

Sequence of Jak2 (a.a. 828-1132) (O60674 828-1132): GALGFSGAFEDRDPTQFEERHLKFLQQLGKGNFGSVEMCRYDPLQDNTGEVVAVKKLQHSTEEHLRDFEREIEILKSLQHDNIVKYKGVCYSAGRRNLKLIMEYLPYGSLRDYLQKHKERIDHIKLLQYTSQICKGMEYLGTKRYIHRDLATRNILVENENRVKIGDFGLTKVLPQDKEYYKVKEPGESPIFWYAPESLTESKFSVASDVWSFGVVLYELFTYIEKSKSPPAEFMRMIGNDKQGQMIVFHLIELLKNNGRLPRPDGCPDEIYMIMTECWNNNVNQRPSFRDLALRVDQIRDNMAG

Row | Structure (SMILES) | pIC50 (Jak2 (a.a. 828-1132)) | pIC50 [1] | IC50 Ratio JAK2/JAK1 [2]
1 | N#CCC1(n2cc(-c3ncnc4[nH]ccc34)cn2)CN(C2CCN(C(=O)Nc3ccccc3Cl)CC2)C1 [Example 163, N-(2-chlorophenyl)-4-{3-(cyanomethyl)-3-[4-(7H-pyrrolo[2,3-d]pyrimidin-4-yl)-1H-pyrazol-1-yl]azetidin-1-yl}piperidine-1-carboxamide] | 7.30 to 8.00 | ≥ 8.30 | 12.0
2 | N#CCC1(n2cc(-c3ncnc4[nH]ccc34)cn2)CN(C2CCN(C(=O)c3c(F)cc(F)cc3F)CC2)C1 [Example 49, {3-[4-(7H-pyrrolo[2,3-d]pyrimidin-4-yl)-1H-pyrazol-1-yl]-1-[1-(2,4,6-trifluorobenzoyl)piperidin-4-yl]azetidin-3-yl}acetonitrile] | ≥ 8.00 | ≥ 8.30 | 6.5
3 | CC1(N2CC(CC#N)(n3cc(-c4ncnc5[nH]ccc45)cn3)C2)CCN(C(=O)c2cccc(F)c2)CC1 [Example 152, {1-[1-(3-Fluorobenzoyl)-4-methylpiperidin-4-yl]-3-[4-(7H-pyrrolo[2,3-d]pyrimidin-4-yl)-1H-pyrazol-1-yl]azetidin-3-yl}acetonitrile] | 7.30 to 8.00 | 7.70 to 8.30 | 4.0
4 | N#CCC1(n2cc(-c3ncnc4[nH]ccc34)cn2)CN(C2CCN(C(=O)c3sccc3Cl)CC2)C1 [Example 76, {1-{1-[(3-chloro-2-thienyl)carbonyl]piperidin-4-yl}-3-[4-(7H-pyrrolo[2,3-d]pyrimidin-4-yl)-1H-pyrazol-1-yl]azetidin-3-yl}acetonitrile] | ≥ 8.00 | ≥ 8.30 | 5.5
5 | N#CCC1(n2cc(-c3ncnc4[nH]ccc34)cn2)CN(C2CCN(C(=O)Nc3ccc(C(F)(F)F)cc3)CC2)C1 [Example 167, 4-{3-(cyanomethyl)-3-[4-(7H-pyrrolo[2,3-d]pyrimidin-4-yl)-1H-pyrazol-1-yl]azetidin-1-yl}-N-[4-(trifluoromethyl)phenyl]piperidine-1-carboxamide] | ≥ 8.00 | ≥ 8.30 | 2.0
6 | N#CCC1(n2cc(-c3ncnc4[nH]ccc34)cn2)CN(C2CCN(Cc3ccc(F)c(C#N)c3)CC2)C1 [Example 220, 5-[(4-{3-(cyanomethyl)-3-[4-(7H-pyrrolo[2,3-d]pyrimidin-4-yl)-1H-pyrazol-1-yl]azetidin-1-yl}piperidin-1-yl)methyl]-2-fluorobenzonitrile] | 7.00 to 7.30 | 7.70 to 8.30 | 4.4
7 | N#CCC1(n2cc(-c3ncnc4[nH]ccc34)cn2)CN(C2CCN(C(=O)c3cc4c(C(F)(F)F)cccc4s3)CC2)C1 [Example 93, [3-[4-(7H-pyrrolo[2,3-d]pyrimidin-4-yl)-1H-pyrazol-1-yl]-1-(1-{[4-(trifluoromethyl)-1-benzothien-2-yl]carbonyl}piperidin-4-yl)azetidin-3-yl]acetonitrile] | ≥ 8.00 | ≥ 8.30 | 1.5
8 | N#CCC1(n2cc(-c3ncnc4[nH]ccc34)cn2)CN(C2CCN(C(=O)Nc3ccc(F)cc3Cl)CC2)C1 [Example 162, N-(2-chloro-4-fluorophenyl)-4-{3-(cyanomethyl)-3-[4-(7H-pyrrolo[2,3-d]pyrimidin-4-yl)-1H-pyrazol-1-yl]azetidin-1-yl}piperidine-1-carboxamide] | 7.30 to 8.00 | ≥ 8.30 | 13.6
9 | N#CCC1(n2cc(-c3ncnc4[nH]ccc34)cn2)CN(C2CCN(C(=O)c3cccc(F)c3F)CC2)C1 [Example 41, {1-[1-(2,3-difluorobenzoyl)piperidin-4-yl]-3-[4-(7H-pyrrolo[2,3-d]pyrimidin-4-yl)-1H-pyrazol-1-yl]azetidin-3-yl}acetonitrile] | ≥ 8.00 | ≥ 8.30 | 4.9
10 | N#CCC1(n2cc(-c3ncnc4[nH]ccc34)cn2)CN(C2CCN(C(=O)c3cc(F)c(F)c(F)c3)CC2)C1 [Example 4, {3-[4-(7H-pyrrolo[2,3-d]pyrimidin-4-yl)-1H-pyrazol-1-yl]-1-[1-(3,4,5-trifluorobenzoyl)piperidin-4-yl]azetidin-3-yl}acetonitrile] | 7.00 to 7.30 | 7.70 to 8.30 | 10.2
11 | N#CCC1(n2cc(-c3ncnc4[nH]ccc34)cn2)CN(C2CCN(C(=O)Nc3cccc(Cl)c3)CC2)C1 [Example 183, N-(3-chlorophenyl)-4-{3-(cyanomethyl)-3-[4-(7H-pyrrolo[2,3-d]pyrimidin-4-yl)-1H-pyrazol-1-yl]azetidin-1-yl}piperidine-1-carboxamide] | ≥ 8.00 | ≥ 8.30 | 3.8
12 | CN(C)c1ccc(CN2CCC(N3CC(CC#N)(n4cc(-c5ncnc6[nH]ccc56)cn4)C3)CC2)c(F)c1C#N [Example 209, 3-[(4-{3-(Cyanomethyl)-3-[4-(7H-pyrrolo[2,3-d]pyrimidin-4-yl)-1H-pyrazol-1-yl]azetidin-1-yl}piperidin-1-yl)methyl]-6-(dimethylamino)-2-fluorobenzonitrile] | 7.30 to 8.00 | ≥ 8.30 | 19.0
13 | Cc1cc(C)c(CC(=O)N2CCC(N3CC(CC#N)(n4cc(-c5ncnc6[nH]ccc56)cn4)C3)CC2)c(C)c1 [Example 113, {1-[1-(mesitylacetyl)piperidin-4-yl]-3-[4-(7H-pyrrolo[2,3-d]pyrimidin-4-yl)-1H-pyrazol-1-yl]azetidin-3-yl}acetonitrile] | 7.00 to 7.30 | 7.52 to 7.70 | 4.2
14 | N#CCC1(n2cc(-c3ncnc4[nH]ccc34)cn2)CN(C2CCN(C(=O)c3ncco3)CC2)C1 [Example 16, {1-[1-(1,3-oxazol-2-ylcarbonyl)piperidin-4-yl]-3-[4-(7H-pyrrolo[2,3-d]pyrimidin-4-yl)-1H-pyrazol-1-yl]azetidin-3-yl}acetonitrile] | 7.30 to 8.00 | 7.70 to 8.30 | 2.5

Continued, values first:

Row | pIC50 (Jak2 (a.a. 828-1132)) | pIC50 [1] | IC50 Ratio JAK2/JAK1 [2] | Structure (SMILES)
15 | 7.30 to 8.00 | ≥ 8.30 | 2.8 | N#CCC1(n2cc(-c3c(F)cnc4[nH]ccc34)cn2)CN(C2CCN(C(=O)c3ccncc3F)CC2)C1 [Example 320, {1-[1-(3-fluoroisonicotinoyl)piperidin-4-yl]-3-[4-(5-fluoro-1H-pyrrolo[2,3-b]pyridin-4-yl)-1H-pyrazol-1-yl]azetidin-3-yl}acetonitrile]
16 | 7.30 to 8.00 | ≥ 8.30 | 4.2 | N#CCC1(n2cc(-c3ncnc4[nH]ccc34)cn2)CN(C2CCN(Cc3ccc4c(c3)OCCO4)CC2)C1 [Example 234, {1-[1-(2,3-dihydro-1,4-benzodioxin-6-ylmethyl)piperidin-4-yl]-3-[4-(7H-pyrrolo[2,3-d]pyrimidin-4-yl)-1H-pyrazol-1-yl]azetidin-3-yl}acetonitrile]
17 | 7.30 to 8.00 | ≥ 8.30 | 33.8 | CC(C)NC(=O)N1CCC(N2CC(CC#N)(n3cc(-c4ncnc5[nH]ccc45)cn3)C2)CC1 [Example 367, 4-{3-(cyanomethyl)-3-[4-(7H-pyrrolo[2,3-d]pyrimidin-4-yl)-1H-pyrazol-1-yl]azetidin-1-yl}-N-isopropylpiperidine-1-carboxamide]
18 | 7.00 to 7.30 | ≥ 8.30 | 10.4 | N#CCC1(n2cc(-c3ccnc4[nH]ccc34)cn2)CN(C2CCN(C(=O)Nc3cnccc3C(F)(F)F)CC2)C1 [Example 308, 4-{3-(cyanomethyl)-3-[4-(1H-pyrrolo[2,3-b]pyridin-4-yl)-1H-pyrazol-1-yl]azetidin-1-yl}-N-[4-(trifluoromethyl)pyridin-3-yl]piperidine-1-carboxamide]
19 | 7.00 to 7.30 | ≥ 8.30 | 12.2 | N#CCC1(n2ccc(-c3ncnc4[nH]ccc34)c2)CN(C2CCN(C(=O)c3cc(F)cc(C#N)c3)CC2)C1 [Example 263, 3-[(4-{3-(cyanomethyl)-3-[3-(7H-pyrrolo[2,3-d]pyrimidin-4-yl)-1H-pyrrol-1-yl]azetidin-1-yl}piperidin-1-yl)carbonyl]-5-fluorobenzonitrile]
20 | 7.00 to 7.30 | 7.70 to 8.30 | 6.4 | N#CCC1(n2cc(-c3ncnc4[nH]ccc34)cn2)CN(C2CCN(Cc3ccc(C#N)c(F)c3)CC2)C1 [Example 229, 4-[(4-{3-(cyanomethyl)-3-[4-(7H-pyrrolo[2,3-d]pyrimidin-4-yl)-1H-pyrazol-1-yl]azetidin-1-yl}piperidin-1-yl)methyl]-2-fluorobenzonitrile]
21 | ≥ 8.00 | ≥ 8.30 | 4.6 | Cc1nc(S(=O)(=O)N2CCC(N3CC(CC#N)(n4cc(-c5ncnc6[nH]ccc56)cn4)C3)CC2)cn1C [Example 259, {1-{1-[(1,2-dimethyl-1H-imidazol-4-yl)sulfonyl]piperidin-4-yl}-3-[4-(7H-pyrrolo[2,3-d]pyrimidin-4-yl)-1H-pyrazol-1-yl]azetidin-3-yl}acetonitrile]
22 | 7.00 to 7.30 | 7.70 to 8.30 | 5.8 | N#CCC1(n2cc(-c3c(C#N)cnc4[nH]ccc34)cn2)CN(C2CCN(C(=O)c3cc(C(F)(F)F)ncc3F)CC2)C1 [Example 356, 4-[1-(3-(Cyanomethyl)-1-{1-[5-fluoro-2-(trifluoromethyl)isonicotinoyl]piperidin-4-yl}azetidin-3-yl)-1H-pyrazol-4-yl]-1H-pyrrolo[2,3-b]pyridine-5-carbonitrile]
23 | 7.30 to 8.00 | ≥ 8.30 | 5.7 | N#CCC1(n2cc(-c3ncnc4[nH]ccc34)cn2)CN(C2CCN(C(=O)c3cc(C(F)(F)F)ncc3Cl)CC2)C1 [Example 342, {1-{1-[5-Chloro-2-(trifluoromethyl)isonicotinoyl]piperidin-4-yl}-3-[4-(7H-pyrrolo[2,3-d]pyrimidin-4-yl)-1H-pyrazol-1-yl]azetidin-3-yl}acetonitrile]
